“And” between values parts separate entries of the source, which are not always exact repeats. Equal values may be shown once. One block for each molecule: values may come before it.
Tested on: 282377-053-R-J1-PDC complex spheroid viability
Experiment: Anticancer human tumor 282377-053-R-J1-PDC patient-derived colon adenocarcinoma cell line growth inhibition [RAS]
Details: for viability, T/C: stronger effect = lower value
Description: RAS pathway inhibitors in Combinations in Complex Spheroids
A high-throughput screen of multi-cell type tumor spheroids was designed to identify active combinations of RAS pathway inhibitors and targeted small molecules. Complex spheroids include a stromal component modeled by human endothelial cells (HUVEC) and fibroblasts modeled by human mesenchymal stem cells (MSCs). The concentration ranges selected for each drug and investigational agent were based upon clinically achievable concentrations if the clinical Cmax of the agent was known.
Compounds. The drugs and investigational agents: abemaciclib (NSC768073), cobimetinib (NSC768068), divarasib (GDC6063, NSC841802), docetaxel (NSC628503), GDC-1971 (RLY-1971, NSC841576), gemcitabine (NSC613327), inavolisib (NSC800729), ipatasertib (NSC767898), KB-0742 (NSC834161), MRTX-1133 (NSC836407), osimertinib (NSC779217), RMC-4630 (NSC839698), RMC-6236 (NSC851965), RMC-6291 (NSC852671), Ro-3306 (NSC812927), sapanisertib (NSC764658), SN-38 (NSC673596), staurosporine (NSC755774), SY5609 (NSC837396), and tovorafenib (DAY101, NSC766906), were obtained from the National Cancer Institute (NCI) Developmental Therapeutics Program Chemical Repository. The FDA-approved anticancer drug set is available from the NCI Developmental Therapeutics Program. […] The stock solutions were prepared in dimethyl sulfoxide (DMSO, Sigma-Aldrich, St. Louis, MO, cat. D2650) at 800-fold the tested concentration and stored at -70 degrees C prior to their use. All drugs and investigational agents were tested over a range starting from a high concentration at or near the clinical Cmax and decreasing in half-log increments. If the clinical Cmax for an agent had not been determined, the highest concentration tested was 10 microM.
Cell Culture. All cells were maintained in an incubator at 37 degrees C and 5% CO2 with 95% humidity. The PDC lines were cultured according to standard operating procedures established by the NCI PDMR. All PDCs were thawed and cultured in Matrigel-coated flasks prepared with a working solution of 1X Ham's F-12 nutrient mix, without supplementation (Invitrogen, Waltham, MA, cat. 11765054), 100 U/mL penicillin-streptomycin (Invitrogen, cat. 15140122), and 2.5% Matrigel (Corning Inc., Corning, NY, cat. 354248) for the first three passages. The 362531-283-R-J2-PDC and 782815-120-R-J1-PDC lines were cultured in 6C/Colon 1B media, which includes advanced DMEM/F-12 (Thermo Fisher Scientific, cat. 12634028), 10 mM HEPES (Thermo Fisher Scientific, cat. 15630080), 1X GlutaMAX supplement (Thermo Fisher Scientific, cat. 35050061), 0.1 mg/mL primocin (InvivoGen, San Diego, CA, cat. ant-pm-2), 10% defined fetal bovine serum, heat inactivated (HyClone Laboratories Inc., Logan, UT, cat. SH30070.03HI), 50% L-WRN conditioned media (ATCC, cat. CRL-3276), 1.25 mM N-Acetyl-L-cysteine (Sigma-Aldrich, cat. A9165), 10 mM nicotinamide (Sigma-Aldrich, cat. N0636), 1X B-27 supplement (Thermo Fisher Scientific, cat. 17504044), 1X N-2 supplement (Thermo Fisher Scientific, cat. 17502048), 50 ng/mL human EGF (Thermo Fisher Scientific, cat. PHG0311), and 10 microM Y-27632 dihydrochloride (Tocris Bioscience, cat. 1254). The K12877-001-R-J1-PDC line was cultured in 6I media, which includes all 6C/Colon 1B media plus 10 ng/mL human FGF-10 (PeproTech, cat. 100-26), 1 ng/mL human FGF-2 (PeproTech, cat. 100-18B), 1 µM prostaglandin E2 (Tocris Bioscience, cat. 2296), […] hydrocortisone (Sigma-Aldrich, cat. H4001), and […] bovine insulin (Sigma-Aldrich, cat. I6634). The K86415-001-R-J1-PDC line was cultured in 6D media, which includes all 6C/Colon 1B media components minus the L-WRN conditioned media. The 485176-168-R4-J1-PDC was cultured in PANC media, which includes all 6C/Colon 1B media plus 100 ng/mL human FGF-10 (PeproTech, cat. 100-26), 500 nM SB-431542 (Selleckchem, cat. S1067), and 10 nM gastrin (Tocris Bioscience, cat. 3006). […]

[1] = curve of first compound, second compound 0.0316 µM
[2] = curve of first compound, second compound 0.1 µM
[3] = curve of first compound, second compound 0.316 µM
[4] = curve of first compound, second compound 1 µM
[5] = second compound 0.0316 µM, first compound 0.0316 µM
[6] = second compound 0.0316 µM, first compound 0.1 µM
[7] = second compound 0.0316 µM, first compound 0.316 µM
[8] = second compound 0.0316 µM, first compound 1 µM
[9] = second compound 0.1 µM, first compound 0.0316 µM
[10] = second compound 0.1 µM, first compound 0.1 µM
[11] = second compound 0.1 µM, first compound 0.316 µM
[12] = second compound 0.1 µM, first compound 1 µM
[13] = second compound 0.316 µM, first compound 0.0316 µM
[14] = second compound 0.316 µM, first compound 0.1 µM
[15] = second compound 0.316 µM, first compound 0.316 µM
[16] = second compound 0.316 µM, first compound 1 µM
[17] = second compound 1 µM, first compound 0.0316 µM
[18] = second compound 1 µM, first compound 0.1 µM
[19] = second compound 1 µM, first compound 0.316 µM
[20] = second compound 1 µM, first compound 1 µM
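Further: spheroids exposed to agents for seven days before readout.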
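Wherever viability, T/C is given: luminescence viability as percent of DMSO vehicle control wells.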

IC50 (curve of compound): > 10000 nM
SMILES: Cc1nc(N2CCC3(CC2)COC(C)C3N)c(CO)nc1Sc1ccnc(N)c1Cl (configuration not stated)
viability, T/C (compound 0.0316 µM): 93.8% and 100% (2×) and 88.5%
viability, T/C (compound 0.316 µM): 94.9% [middle of 4 runs]
viability, T/C (compound 1 µM): 102% [middle of 4 runs]

IC50 [1]: 633 nM
IC50 [2]: 251 nM
IC50 [3]: 440 nM
IC50 [4]: 258 nM
IC50 (curve of first compound, second compound 3.16 µM): 544 nM
IC50 (curve of first compound, second compound 10 µM): > 1000 nM
SMILES: Nc1ccn(C2OC(CO)C(O)C2(F)F)c(=O)n1 (configuration not stated) + C#Cc1c(F)ccc2cc(O)cc(-c3ncc4c(N5CC6CCC(C5)N6)nc(OCC56CCCN5CC(F)C6)nc4c3F)c12
viability, T/C (second compound 0.0316 µM, first compound 0.00316 µM): 133%
viability, T/C (second compound 0.0316 µM, first compound 0.01 µM): 117%
viability, T/C [5]: 85.4%
viability, T/C [6]: 79.5%
viability, T/C [7]: 59%
viability, T/C [8]: 43.1%
viability, T/C (second compound 0.1 µM, first compound 0.00316 µM): 96%
viability, T/C (second compound 0.1 µM, first compound 0.01 µM): 89.7%
viability, T/C [9]: 101%
viability, T/C [10]: 76.8%
viability, T/C [11]: 44.6%
viability, T/C [12]: 37.9%
viability, T/C (second compound 0.316 µM, first compound 0.00316 µM): 115%
viability, T/C (second compound 0.316 µM, first compound 0.01 µM): 92.5%
viability, T/C [13]: 99.4%
viability, T/C [14]: 77%
viability, T/C [15]: 51.1%
viability, T/C [16]: 42.3%
viability, T/C (second compound 1 µM, first compound 0.00316 µM): 100%
viability, T/C (second compound 1 µM, first compound 0.01 µM): 101%
viability, T/C [17]: 107%
viability, T/C [18]: 69.6%
viability, T/C [19]: 51.3%
viability, T/C [20]: 40.2%
viability, T/C (second compound 3.16 µM, first compound 0.00316 µM): 89.8%
viability, T/C (second compound 3.16 µM, first compound 0.01 µM): 86%
viability, T/C (second compound 3.16 µM, first compound 0.0316 µM): 89.1%
viability, T/C (second compound 3.16 µM, first compound 0.1 µM): 73.1%
viability, T/C (second compound 3.16 µM, first compound 0.316 µM): 56.6%
viability, T/C (second compound 3.16 µM, first compound 1 µM): 43.3%
viability, T/C (second compound 10 µM, first compound 0.00316 µM): 99.2%
viability, T/C (second compound 10 µM, first compound 0.01 µM): 99.3%
viability, T/C (second compound 10 µM, first compound 0.0316 µM): 92.8%
viability, T/C (second compound 10 µM, first compound 0.1 µM): 69.8%
viability, T/C (second compound 10 µM, first compound 0.316 µM): 62.5%
viability, T/C (second compound 10 µM, first compound 1 µM): 54.5%

The remaining lines, values behind:

SMILES: C=CC(=O)Nc1cc(Nc2nccc(-c3cn(C)c4ccccc34)n2)c(OC)cc1N(C)CCN(C)C
viability, T/C (compound 0.01 µM): 98.4% [middle of 4 runs]
viability, T/C (compound 0.0316 µM): 91.6% [middle of 4 runs]
viability, T/C (compound 1 µM): 99.8% [middle of 4 runs]
IC50 (curve of compound): > 1000 nM

SMILES: CC(C)NCC(C(=O)N1CCN(c2ncnc3c2C(C)CC3O)CC1)c1ccc(Cl)cc1 (configuration not stated)
viability, T/C (compound 0.0316 µM): 95.3% [middle of 4 runs]
viability, T/C (compound 1 µM): 94.8% [middle of 4 runs]
viability, T/C (compound 3.16 µM): 90.4% [middle of 4 runs]
viability, T/C (compound 10 µM): 80.6% [middle of 4 runs]
IC50 (curve of compound): > 10000 nM

SMILES: C[C@@H](NC(=O)c1ncnc(N)c1Cl)c1ncc(C(=O)Nc2cc(C(F)(F)F)c(Cl)cn2)s1 + C=CC(=O)N1CCN(c2nc(OCC3CCCN3C)nc3c(F)c(-c4nc(N)cc(C)c4C(F)(F)F)c(Cl)cc23)C(C)C1
IC50 (curve of first compound, second compound 0.00316 µM): > 10000 nM
IC50 (curve of first compound, second compound 0.01 µM): > 10000 nM
IC50 [1]: > 10000 nM
IC50 [2]: > 10000 nM
IC50 [3]: > 10000 nM
IC50 [4]: > 10000 nM
viability, T/C (second compound 0.00316 µM, first compound 0.0316 µM): 99%
viability, T/C (second compound 0.00316 µM, first compound 0.1 µM): 101%
viability, T/C (second compound 0.00316 µM, first compound 0.316 µM): 95.4%
viability, T/C (second compound 0.00316 µM, first compound 1 µM): 88.4%
viability, T/C (second compound 0.00316 µM, first compound 3.16 µM): 69.5%
viability, T/C (second compound 0.00316 µM, first compound 10 µM): 66.1%
viability, T/C (second compound 0.01 µM, first compound 0.0316 µM): 84.1%
viability, T/C (second compound 0.01 µM, first compound 0.1 µM): 105%
viability, T/C (second compound 0.01 µM, first compound 0.316 µM): 98%
viability, T/C (second compound 0.01 µM, first compound 1 µM): 80.7%
viability, T/C (second compound 0.01 µM, first compound 3.16 µM): 82.2%
viability, T/C (second compound 0.01 µM, first compound 10 µM): 76.4%
viability, T/C [5]: 84.9%
viability, T/C [6]: 78.4%
viability, T/C [7]: 89.4%
viability, T/C [8]: 84.7%
viability, T/C (second compound 0.0316 µM, first compound 3.16 µM): 80.9%
viability, T/C (second compound 0.0316 µM, first compound 10 µM): 57.6%
viability, T/C [9]: 106%
viability, T/C [10]: 98.7%
viability, T/C [11]: 99.9%
viability, T/C [12]: 92.3%
viability, T/C (second compound 0.1 µM, first compound 3.16 µM): 66%
viability, T/C (second compound 0.1 µM, first compound 10 µM): 66.1%
viability, T/C [13]: 92.5%
viability, T/C [14]: 118%
viability, T/C [15]: 98.1%
viability, T/C [16]: 81.6%
viability, T/C (second compound 0.316 µM, first compound 3.16 µM): 78.2%
viability, T/C (second compound 0.316 µM, first compound 10 µM): 92.3%
viability, T/C [17]: 104%
viability, T/C [18]: 90.3%
viability, T/C [19]: 122%
viability, T/C [20]: 76.5%
viability, T/C (second compound 1 µM, first compound 3.16 µM): 85%
viability, T/C (second compound 1 µM, first compound 10 µM): 82.5%

From PubChem BioAssay AID2060905 (Molecular Pharmacology Branch, DTP, NCI, 2025)
